These results are taken from patent publication US20120082727A1, “USE OF MAGNESIUM STEARATE IN DRY POWDER FORMULATIONS FOR INHALATION” (CHIESI FARMACEUTICI S.p.A., priority 2010, published 2012).

The data set is described as follows: Chemical stability of dry powder formulations on storage in glass vials, residual test compound and hydrolysis product by UPLC. Format: physicochemical. The settings on record: 25 °C, 60% rel. humidity; for CHF 5551.02 values (%): hydrolysis degradation product. As to the method:
Dry powder formulations were prepared comprising as a carrier either particles of alpha-lactose monohydrate 212-355 microns alone (coarse) or coated with magnesium stearate (coated). Said coated particles were obtained by mixing alpha-lactose monohydrate with 1% magnesium stearate in a Turbula mixer for 4 hours.
Samples of the manufactured mixtures were filled in glass vials and stored under stressing conditions ([…]) in comparison to a sample stored under long tem conditions (25 ° C., 60% relative humidity).
The percentage amount of residual test compound and of the degradation product due to hydrolysis, (R)-1-hydroxy-(2-oxo-2-thiophen-2-yl-ethyl)-1-azonia-bicyclo[2.2.2]octane; chloride quoted as CHF 5551.02, was determined in the two formulations by ultra performance liquid chromatography (UPLC) in comparison to the active ingredient without the carrier (API). The variation of CHF 5551.2 content with the time is also plotted in FIG. 3.

`O=C(OC(c1cccc(F)c1)c1cccc(F)c1)O[C@H]1C[N+]2(CC(=O)c3cccs3)CCC1CC2.[Cl-]` [Test compound, (R)-3-[bis-(3-fluoro-phenyl)-methoxycarbonyloxy]-1-(2-oxo-2-thiophen-2-yl-ethyl)-1-azonia-bicyclo[2.2.2]octane; chloride]: the “Test compound values (%)” value reads like this: (0 days) 100.0%; (2 days) 99.9%; (4 days) 99.9%; (7 days) 99.9%; (9 days) 99.9%; (11 days) 99.9%. Further, the “Test compound values (%)” value (14 days) is listed as 100.0%. The “CHF 5551.02 values (%)” value worked out at 0.08% (0 days); 0.20% (2 days); 0.29% (4 days); 0.24% (7 days); 0.28% (9 days); 0.29% (11 days). Where the note is “14 days”, the “CHF 5551.02 values (%)” value is listed as 0.23%.
